Data published in PMC4598813 (Scientific Reports, 2015).

What was measured:
[1] = tested on: L2-2B1 cells; conditions: mouse
[2] = tested on: PrP^Sc in ScN2a cells; assay type: cell-based, mouse
[3] = tested on: PrP^Sc formation; conditions: cited from earlier work
[4] = tested on: total PrP in ScN2a cells; assay type: cell-based, mouse
[5] = tested on: ScN2a cells; conditions: mouse

CCN(CC)CCCC(C)Nc1c2ccc(Cl)cc2nc2ccc(OC)cc12 (centres unmarked) [Quinacrine]
concentration causing cytotoxicity [1]: above 2 μM | PrP^Sc level [2]: completely inhibited | optimal concentration found to inhibit PrP^Sc formation [3]: below 4 μM | total PrP level [4]: unaffected | concentration causing cytotoxicity [5]: above 2 μM
